These are literature values, as cited in patent US12329730B2, “Thermoresponsive hydrogel containing polymer microparticles for controlled drug delivery” (UNIVERSITY OF PITTSBURGH—OF THE COMMONWEALTH SYSTEM OF …, priority 2017, dated 2025).

Converted amounts (≈) assume the structure as drawn.

In this data set the test system is Streptococcus pneumoniae and Haemophilus influenzae. The following applies: Jacobs et al. 1999.

As for `O=C(O)c1cn(C2CC2)c2cc(N3CCNCC3)c(F)cc2c1=O` [ciprofloxacin], the “minimum inhibitory concentration (MIC)” value was 2 µg/mL (≈ 6.04 µM).
